Measured values published in patent US6300337A, “Acetamide derivative and use thereof” (Nippon Kayaku Kabushiki Kaisha, priority 1998, dated 2001).

Target: T1, human chymase (Homo sapiens, UniProt P23946)
T1 construct: 60 g human tonsillar gland was finely divided by scissors and a scalpel; from tissue; host or cells: human tonsillar gland
T1 sequence (P23946 22-247): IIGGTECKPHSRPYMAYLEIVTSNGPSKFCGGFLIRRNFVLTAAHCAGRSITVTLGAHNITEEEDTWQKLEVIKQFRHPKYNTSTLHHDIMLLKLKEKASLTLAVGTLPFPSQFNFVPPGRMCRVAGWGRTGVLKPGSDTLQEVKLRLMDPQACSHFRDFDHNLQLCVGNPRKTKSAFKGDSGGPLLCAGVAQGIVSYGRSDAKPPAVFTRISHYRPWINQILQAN
Assay: inhibitory activity on human chymase (angiotensin I as substrate, angiotensin II determined by HPLC)
Assay type: biochemical
Details: for inhibitory activity on chymase (in words): chymase species not given; for IC50: first table, pH 8.0, 37° C., 15 min, read-out: 50% Inhibitory concentration (IC50) human chymase
Description: It is known that chymase is present in tissues of various animals, and its isolation and purification methods are described in Anal. Biochem., 137, 449 (1984) and FEBS Letters, 323, 119 (1993). In the present invention, chymase was purified by the methods described in these literatures, and the present compounds were examined for inhibitory activity on human chymase or dog chymase. The specific methods are as follows:
60 g human tonsillar gland was finely divided by scissors and a scalpel, suspended in 0.1 M phosphate buffer (pH 8.0), and disrupted by a Polytron homogenizer for 5 minutes to prepare a crude chymase enzyme solution. The solution was centrifuged at 22000×g for 30 min, and the precipitate was used as a chymase enzyme fraction. The precipitate was washed by repeating the above procedure twice, and then suspended in 0.1 M phosphate buffer (pH 8.0) containing 2 M sodium chloride and 5% ammonium sulfate. The suspension was centrifuged at 27000×g for 20 min to give a supernatant as a chymase fraction. The supernatant was concentrated by ultrafiltration, applied to a G2000SW-XL column (6.0×300 mm), and eluted with 0.1 M phosphate buffer (pH 8.0). An active fraction decomposing succinyl leucyl leucyl valyl tyrosyl methylcoumarylamide (hereinafter referred to as the synthetic chymase substrate, made by Peptide Kenkyusho) was recovered, concentrated and used as a purified human chymase for the following activity measurement.
The inhibitory activity on the human chymase and dog chymase was measured using angiotensin I (made by Peptide Kenkyusho) for a substrate. 200 μl of 0.15 M Tris-HCl buffer (pH 8.0) containing 0.1 mM angiotensin I, 0.0002 μl of human or dog chymase solution and 2 μl of a dimethylsulfoxide solution of the present compound were added into a 1.5 ml test tube and incubated at 37° C. for 15 min. At the end of the reaction, produced angiotensin II was immediately determined by high performance liquid chromatography […] the chymase activity to calculate 50% inhibitory concentration (IC50: nM).
The test was conducted several times. Chymase was prepared for each test in the manner described above. The compounds prepared in the above-described Examples were used for the test.

With `CC(=O)OCc1cnc(-c2ccccc2)n(CC(=O)NC(Cc2ccccc2)C(=O)C(=O)CCCOc2ccccn2)c1=O` (stereo not shown) [Compound 1, 2-(5-acetyloxymethyl-4-oxo-2-phenyl-3,4-dihydro-pyrimidin-3-yl)-N-{2,3-dioxo-1-phenylmethyl-6-(2-pyridyloxy)}hexylacetamide] the “inhibitory activity on chymase (in words)” value (shortened to “inhibitory activity”) was “powerful inhibitory activity on chymase” and the IC50 was 26 nM.

In the case of `COCc1cnc(-c2ccccc2)n(CC(=O)NC(Cc2ccccc2)C(=O)C(=O)CCCOc2ccccn2)c1=O` (stereo not shown) [Compound 3, 2-(5-methoxymethyl-4-oxo-2-phenyl-3,4-dihydropyrimidin-3-yl)-N-{2,3-dioxo-1-phenylmethyl-6-(2-pyridyloxy)} hexylacetamide], the “inhibitory activity” value is reported as “powerful inhibitory activity on chymase” and the IC50 is reported as 22 nM.

Work on `CCOC(=O)c1cnc(-c2ccccc2)n(CC(=O)NC(Cc2ccccc2)C(=O)C(=O)CCCOc2ccccn2)c1=O` (stereo not shown) [Compound 4, 2-(5-ethoxycarbonyl-4-oxo-2-phenyl-3,4-dihydro-pyrimidin-3-yl)-N-{2,3-dioxo-1-phenylmethyl-6-(2-pyridyl-oxy)}hexylacetamide] yielded an IC50 of 490 nM.

With `O=C(Cn1c(-c2ccccc2)ncc(CO)c1=O)NC(Cc1ccccc1)C(=O)C(=O)CCCOc1ccccn1` (stereo not shown) [Compound 2, 2-(5-hydroxymethyl-4-oxo-2-phenyl-3,4-dihydropyrimidin-3-yl)-N-{2,3-dioxo-1-phenylmethyl-6-(2-pyridyloxy)} hexylacetamide] the “inhibitory activity” value was “powerful inhibitory activity on chymase” and the IC50 was 27 nM.
